Counter-ions that a name gives are not always drawn.
Assays:
[1] = MTS tetrazolium reduction cell viability assay; settings: rat, rat mesangial cells (1097/IRMC cells), TGF-β1 stimulated, CC50 (μM), vs 1% DMSO vehicle
[2] = tested on: TGF-β induced [14C]-proline incorporation in rat mesangial cells; experiment: [14C]-proline incorporation assay (collagen biosynthesis); format: cell-based; settings: inhibition of TGF-β1 (1 ng/ml) induced [14C]-proline incorporation, IRMC cells
[3] = Rattus norvegicus, Mesangial cell, 44 h

| Compound | CC50 at 48 h [1] | IC50 [2, 3] | IC50 ([2]; 44 hours) |
| --- | --- | --- | --- |
| COc1ccc(/C=C/C(=O)N2CCOc3ccccc32)c(OCCN(C)C)c1OC [Example 115, (E)-1-(2H-benzo[b][1,4]oxazin-4(3H)-yl)-3-(2-(2-(dimethylamino)ethoxy)-3,4-dimethoxyphenyl)-prop-2-en-1-one] | 45.4 µM | 7.03 µM |  |
| COc1ccc(/C=C/C(=O)Nc2cc(Cl)ccc2C(=O)O)c(OCCN(C)C)c1OC [Example 117, (E)-4-chloro-2-(3-(2-(2-(dimethylamino)ethoxy)-3,4-dimethoxyphenyl)acrylamido)benzoic Acid] | > 300 µM | 21.4 µM |  |
| COc1cc(/C=C/C(=O)N2CCOc3ccccc32)ccc1OC1CCN(C)C1 (stereo not shown) [Example 118, (E)-1-(2H-benzo[b][1,4]oxazin-4(3H)-yl)-3-(3-methoxy-4-((1-methylpyrrolidin-3-yl)oxy)phenyl)prop-2-en-1-one] | 25.5 µM | 14.3 µM |  |
| C#CCOc1ccc(C2CC2C(=O)N2CCOc3ccccc32)cc1OC (stereo not shown) [Example 119, (2H-benzo[b][1,4]oxazin-4(3H)-yl)(2-(3-methoxy-4-(prop-2-yn-1-yloxy)phenyl)cyclopropyl) methanone] | 74.8 µM | 24.7 µM |  |
| COc1ccc(C2CC2C(=O)Nc2ccc(F)cc2)c(OCCN(C)C)c1OC (stereo not shown) [Example 122, 2-(2-(2-(dimethylamino)ethoxy)-3,4-dimethoxyphenyl)-N-(4-fluorophenyl)cyclopropane-1-carboxamide] | 234 µM | 17.2 µM |  |
| C#CCOc1ccc(/C=C/C(=O)Nc2ccccc2F)cc1CC [Example 123, (E)-3-(3-ethyl-4-(prop-2-yn-1-yloxy)phenyl)-N-(2-fluorophenyl)acrylamide] | > 300 µM | 19.3 µM |  |
| C#CCOc1ccc(/C=C/C(=O)Nc2ccc(C#N)cc2)cc1CC [Example 124, (E)-N-(4-cyanophenyl)-3-(3-ethyl-4-(prop-2-yn-1-yloxy)phenyl)acrylamide] | > 300 µM | 34.8 µM |  |
| C#CCOc1ccc(/C=C/C(=O)Nc2ccc(F)cc2)cc1CC [Example 125, (E)-3-(3-ethyl-4-(prop-2-yn-1-yloxy)phenyl)-N-(4-fluorophenyl)acrylamide] | > 300 µM | 17.6 µM |  |
| C#CCOc1ccc(/C=C/C(=O)n2nc(O)c3ccccc32)cc1CC [Example 126, (E)-3-(3-ethyl-4-(prop-2-yn-1-yloxy)phenyl)-1-(3-hydroxy-1H-indazol-1-yl)prop-2-en-1-one] | > 27.5 µM | 3.81 µM |  |
| COc1ccc(/C=C/C(=O)Nc2ccccc2F)c(OCCN(C)C)c1OC [Example 127, (E)-3-(2-(2-(dimethylamino)ethoxy)-3,4-dimethoxyphenyl)-N-(2-fluorophenyl)acrylamide] | 82.9 µM | 35.4 µM |  |
| COc1ccc(/C=C/C(=O)Nc2ccc(F)cc2)c(OCCN(C)C)c1OC [Example 128, (E)-3-(2-(2-(dimethylamino)ethoxy)-3,4-dimethoxyphenyl)-N-(4-fluorophenyl)acrylamide trifluoroacetic acid salt] | 24.4 µM | 11.5 µM |  |
| COc1ccc(/C=C/C(=O)Nc2ccc(C#N)cc2)c(OCCN(C)C)c1OC [Example 129, (E)-N-(4-cyanophenyl)-3-(2-(2-(dimethylamino)ethoxy)-3,4-dimethoxyphenyl)acrylamide trifluoroacetic acid salt] | 28.9 µM | 12.3 µM |  |
| COc1cc(/C=C/C(=O)Nc2ccccc2F)ccc1OC1CCN(C)C1 (stereo not shown) [Example 130, (E)-N-(2-fluorophenyl)-3-(3-methoxy-4-((1-methylpyrrolidin-3-yl)oxy)phenyl)acrylamide] | 51.8 µM | 15.6 µM |  |
| COc1cc(/C=C/C(=O)Nc2ccc(C#N)cc2)ccc1OC1CCN(C)C1 (stereo not shown) [Example 131, (E)-N-(4-cyanophenyl)-3-(3-methoxy-4-((1-methylpyrrolidin-3-yl)oxy)phenyl)acrylamide trifluoroacetic acid salt] | 17.7 µM | 21.6 µM |  |
| COc1cc(/C=C/C(=O)Nc2ccc(F)cc2)ccc1OC1CCN(C)C1 (stereo not shown) [Example 132, (E)-N-(4-fluorophenyl)-3-(3-methoxy-4-((1-methylpyrrolidin-3-yl)oxy)phenyl)actylamide trifluoroacetic acid salt] | 16.6 µM | 12 µM |  |
| C#CCOc1ccc(C2CC2C(=O)Nc2ccc(F)cc2)cc1OC (stereo not shown) [Example 133, N-(4-fluorophenyl)-2-(3-methoxy-4-(prop-2-yn-1-yloxy)phenyl)cyclopropanecarboxamide] | > 300 µM | 23.4 µM |  |
| C#CCOc1ccc(C2CC2C(=O)n2nc(O)c3ccccc32)cc1OC (stereo not shown) [Example 134, (3-hydroxy-1H-indazol-1-yl)(2-(3-methoxy-4-(prop-2-yn-1-yloxy)phenyl)cyclopropyl)methanone] | > 300 µM | 17.5 µM |  |
| C#CCOc1ccc(C2CC2C(=O)Nc2ccc(C#N)cc2)cc1OC (stereo not shown) [Example 135, N-(4-cyanophenyl)-2-(3-methoxy-4-(prop-2-yn-1-yloxy)phenyl)cyclopropanecarboxamide] | > 300 µM | 45.3 µM |  |

| Compound | CC50 at 48 h [1] | IC50 [2, 3] | IC50 ([2]; 44 hours) |
| --- | --- | --- | --- |
| COc1cc(C2CC2C(=O)Nc2ccc(F)cc2)ccc1OC1CCN(C)C1 (stereo not shown) [Example 136, N-(4-fluorophenyl)-2-(3-methoxy-4-((1-methylpyrrolidin-3-yl)oxy)phenyl)cyclopropane-1-carboxamide] | 16.3 µM | 4.13 µM |  |
| COc1cc(C2CC2C(=O)Nc2ccc(C#N)cc2)ccc1OC1CCN(C)C1 (stereo not shown) [Example 137, N-(4-cyanophenyl)-2-(3-methoxy-4-((1-methylpyrrolidin-3-yl)oxy)phenyl)cyclopropane-1-carboxamide] | 30.8 µM | 15.4 µM |  |
| COc1cc(C2CC2C(=O)Nc2ccccc2F)ccc1OC1CCN(C)C1 (stereo not shown) [Example 138, N-(2-fluorophenyl)-2-(3-methoxy-4-((1-methylpyrrolidin-3-yl)oxy)phenyl)cyclopropane carboxamide] | 50.9 µM | 11 µM |  |
| COc1cc(/C=C/C(=O)Nc2cccc(Cl)c2)ccc1OCC1COC1 [Example 147, (E)-N-(3-chlorophenyl)-3-(3-methoxy-4-(oxetan-3-ylmethoxy)phenyl)acrylamide] | > 300 µM | 39.1 µM |  |
| COc1cc(C2CC2C(=O)Nc2cccc(Cl)c2)ccc1OCC1COC1 (stereo not shown) [Example 148, N-(3-chlorophenyl)-2-(3-methoxy-4-(oxetan-3-ylmethoxy)phenyl)cyclopropane-1-carboxamide] | 77.6 µM | 8.47 µM |  |
| COc1ccc(C2CC2C(=O)Nc2ccc(Cl)cc2)cc1OCc1cnn(C)c1 (stereo not shown) [Example 149, N-(4-chlorophenyl)-2-(4-methoxy-3-((1-methyl-1H-pyrazol-4-yl)methoxy)phenyl)cyclopropane-1-carboxamide] | > 54.8 µM | 8.35 µM |  |
| COc1ccc(/C=C/C(=O)Nc2cccnc2)cc1OCc1cnn(C)c1 [Example 150, (E)-3-(4-methoxy-3-((1-methyl-1H-pyrazol-4-yl)methoxy)phenyl)-N-(pyridin-3-yl)acrylamide] | > 31.6 µM | 4.08 µM |  |
| COc1ccc(/C=C/C(=O)Nc2cccc(Cl)c2)cc1N1CCOCC1 [Example 151, (E)-N-(3-chlorophenyl)-3-(4-methoxy-3-morpholinophenyl)acrylamide] | > 300 µM | 31.6 µM |  |
| COc1cc(/C=C/C(=O)Nc2ccccc2Cl)ccc1OCC1COC1 [Example 152, (E)-N-(2-chlorophenyl)-3-(3-methoxy-4-(oxetan-3-ylmethoxy)phenyl)acrylamide] | > 300 µM | 38.2 µM |  |
| COc1cc(/C=C/C(=O)Nc2ccc(Cl)cc2)ccc1OCC1COC1 [Example 153, (E)-N-(4-chlorophenyl)-3-(3-methoxy-4-(oxetan-3-ylmethoxy)phenyl)acrylamide] | > 300 µM | 35.4 µM |  |
| COc1cc(C2CC2C(=O)Nc2ccc(Cl)cc2)ccc1OCC1COC1 (stereo not shown) [Example 154, N-(4-chlorophenyl)-2-(3-methoxy-4-(oxetan-3-ylmethoxy)phenyl)cyclopropane-1-carboxamide] | > 300 µM | 8.97 µM |  |
| COc1cc(C2CC2C(=O)Nc2ccccc2Cl)ccc1OCC1COC1 (stereo not shown) [Example 155, N-(2-chlorophenyl)-2-(3-methoxy-4-(oxetan-3-ylmethoxy)phenyl)cyclopropane-1-carboxamide] | 196 µM | 18.7 µM |  |
| COc1ccc(C2CC2C(=O)Nc2cccc(Cl)c2)cc1OCc1cnn(C)c1 (stereo not shown) [Example 156, N-(3-chlorophenyl)-2-(4-methoxy-3-((1-methyl-1H-pyrazol-4-yl)methoxy)phenyl)cyclopropane-1-carboxamide] | > 100 µM | 17.8 µM |  |
| COc1ccc(C2CC2C(=O)Nc2ccccc2Cl)cc1OCc1cnn(C)c1 (stereo not shown) [Example 157] | 45.3 µM | 12.6 µM |  |
| COc1ccc(C2CC2C(=O)Nc2cccc(S(C)(=O)=O)c2)cc1OCc1cnn(C)c1 (stereo not shown) [Example 158, 2-(4-methoxy-3-((1-methyl-1H-pyrazol-4-yl)methoxy)phenyl)-N-(3-(methylsulfonyl)phenyl)cyclopropane-1-carboxamide] | 68.8 µM | 25.9 µM |  |
| COc1ccc(/C=C/C(=O)Nc2ccccc2Cl)cc1OCc1cnn(C)c1 [Example 159, (E)-N-(2-chlorophenyl)-3-(4-methoxy-3-((1-methyl-1H-pyrazol-4-yl)methoxy)phenyl)acrylamide] | > 10 µM | 2.43 µM |  |
| COc1ccc(/C=C/C(=O)Nc2cccc(Cl)c2)cc1OCc1cnn(C)c1 [Example 160, (E)-N-(3-chlorophenyl)-3-(4-methoxy-3-((1-methyl-1H-pyrazol-4-yl)methoxy)phenyl)acrylamide] | > 300 µM | 30.4 µM |  |
| C#CCOc1ccc(/C=C/C(=O)Nc2ccccc2C(=O)O)cc1OC [FT011, (E)-2-(3-(3-methoxy-4-(prop-2-yn-1-yloxy)phenyl)acrylamido)benzoic acid, reference compound] | 119 µM | 17 µM | 16 µM |
